Measured values: article PMC9820345, “Metal Complexes of a 5-Nitro-8-Hydroxyquinoline-Proline Hybrid with Enhanced Water Solubility Targeting Multidrug Resistant Cancer Cells” (International Journal of Molecular Sciences, 2022)
Where two headings read alike, the source gives them in different places.

Key:
[1] = Stability of the complexes in blood serum (UV-vis); format: in vitro ADME, human; conditions: blood serum four-time diluted with PBS'; after 24 h
Source text: (§1) The stability of the RhCp* and RuCym complexes of HQNO2-L-Pro was also monitored in Roswell Park Memorial Institute (RPMI) medium used for the in vitro cell studies (in the case of Colo cells), and in blood serum using UV-vis and ^1H NMR spectroscopy. […] Despite these changes, the dissociation of the complexes is not likely as the liberation of the unbound ligand was not observed; thus, the complexes most probably form ternary complexes with the components of the serum or the medium. In order to further study the reactivity of these complexes with bioligands, their interaction with human serum albumin (HSA) and selected oligopeptides (also used as binding models of HSA) was assayed.
Stock and sample solutions were prepared using Milli-Q water. […] Their concentrations were determined by complexometry via the EDTA complexes. […] The concentration of the Fe(II) stock solution was determined by permanganometric titrations under acidic conditions. […] Residual citrate content of HSA was removed by repeated ultrafiltration of the protein stock solution, and its concentration was calculated from its UV absorption: λ280nm (HSA) = 36,850 M^−1 cm^−1 [51]. […]

[2] = format: physicochemical; conditions: for logK' (H2O/Cl−): I = 0.2 M KNO3, 25.0 °C
Description: Spectral changes in the UV-vis spectra (Figure 8c) reveal two transformation processes. […] As chloride ions can efficiently coordinate to these types of half-sandwich organometallic complexes, the water/chloride co-ligand exchange process was also studied by UV-vis spectrophotometry (at pH 7.4 or 6.0), and logK' (H2O/Cl^-) exchange constants were determined (Table 3) based on the spectral changes upon increasing the chloride concentration in the solution. For the RhCp* complex, a higher constant, namely stronger chloride ion affinity, was obtained. […] An Agilent Cary 8454 diode array spectrophotometer (Santa Clara, CA, USA) was used to obtain UV-vis spectra in the wavelength range 200-1000 nm, while spectra were recorded for the Fe(II)-containing samples using an Avantes (Avantes B.V., Apeldoorn, The Nederlands) AvaSpec-ULS2048CL-EVO spectrometer with an AvaLight-DHc light source and […] transmission dip probe. The titrations for the Fe(II)-containing samples were performed in a laboratory glove box (GP(Campus), Jacomex) (O2 content ≤ 1 ppm). The path length (l) was 1 cm in most cases (the actual l is always indicated in the legends of the figures). […] Spectra were always background and baseline corrected. The computer program HypSpec was used to obtain stability constants. Hydrolysis constants of the Fe(III), Fe(II), RuCym, and RhCp* species were included in the speciation models (see Table S4 with the data taken from References).

[3] = Stability of the complexes in RPMI medium (UV-vis, 1H NMR); format: physicochemical; conditions: compared with serum
Source text: as §1

[4] = Cyclic voltammetry of the iron complexes; format: physicochemical; conditions: for E1/2 vs. NHE: iron(III/II)-ligand (1:3), pH 7.40
[5] = biological target: T1, HSA site I (Trp-214) (Homo sapiens, UniProt P02768); test: HSA Trp-214 quenching by fluorometry (site I); format: binding; conditions: 1 µM HSA, pH 7.4 (PBS'), 24 h incubation
T1 construct: purchased Sigma-Aldrich (Darmstadt, Germany) A8763
Description: Therefore, tryptophan (Trp-214) quenching and dansylglycine (DG) site marker displacement experiments were conducted by fluorometry to obtain information about the binding at sites I and II, respectively, using the same approach reported in our former paper. A representative spectral series is shown in Figure 9a for the Trp-214 quenching experiment, upon the addition of the RhCp*–HQNO2-L-Pro complex and the computed binding constants (logKQ’ and logKDG’) which can be found in Figure 9b, in addition to the corresponding data for the HQCl-L-Pro complexes.
A Fluoromax (Horiba Jobin Yvon, Longjumeau, France) spectrofluorometer was utilized for fluorescence measurements using a 1 cm × 1 cm quartz cuvette. Samples contained 1 µM HSA or DG and 1 µM HSA at pH 7.4 (PBS’), and the complex concentration was varied between 0 and 53 µM. The measurements were carried out on individual samples. Excitation wavelengths were 295 nm for Trp-214 quenching, and 335 nm for the DG displacement studies, respectively. The calculated conditional stability constants for HSA–complex species were obtained using the computer program HypSpec. Calculations always were based on data obtained from at least two independent measurements. Self-absorbance and inner filter effect had to be taken into account, and corrections were made as was described in our former works.

T1 sequence (P02768 25-609): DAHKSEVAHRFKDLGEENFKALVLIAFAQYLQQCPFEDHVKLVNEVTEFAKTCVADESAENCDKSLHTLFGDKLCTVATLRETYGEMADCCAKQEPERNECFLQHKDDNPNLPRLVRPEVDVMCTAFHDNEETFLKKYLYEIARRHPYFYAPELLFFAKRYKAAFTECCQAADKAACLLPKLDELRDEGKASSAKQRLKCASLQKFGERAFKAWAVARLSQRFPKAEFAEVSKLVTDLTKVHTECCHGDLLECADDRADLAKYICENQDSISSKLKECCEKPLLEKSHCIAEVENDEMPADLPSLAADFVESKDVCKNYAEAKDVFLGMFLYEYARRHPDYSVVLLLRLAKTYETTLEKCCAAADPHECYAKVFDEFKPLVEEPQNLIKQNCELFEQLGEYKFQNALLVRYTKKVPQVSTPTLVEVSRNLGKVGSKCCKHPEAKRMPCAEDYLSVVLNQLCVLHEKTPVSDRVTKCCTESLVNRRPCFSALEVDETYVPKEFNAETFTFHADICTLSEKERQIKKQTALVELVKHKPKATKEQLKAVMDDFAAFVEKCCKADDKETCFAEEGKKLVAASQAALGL

Q: Which “changes of the charge-transfer bands (400–500 nm) on incubation in serum” value [1] does the source give for `Cc1ccc(C(C)C)cc1.O=C(O)[C@@H]1CCC[NH+]1Cc1cc([N+](=O)[O-])c2ccc[n+]3c2c1[O][Ru-]3[Cl].[Cl-]` [RuCym-HQNO2-L-Pro, [RuCym(HQNO2-L-Pro)Cl]Cl] here?
A: The value was “minor changes”.

Q: What about the “pKa (1)” value [2] of the same molecule?
A: The value was 8.55 ± 0.03.

Q: What about the “pKa (2)” value [2] of the same molecule?
A: Its value is 10.21 ± 0.03.

Q: What about the “logK' (H2O/Cl−)” value ([2]; pH 6.0) of the same molecule?
A: The value was 1.47 ± 0.01.

Q: What about the “spectral changes on incubation in RPMI medium” value [3] of the same molecule?
A: Its value is “more significant”.

Q: Which results are given for `O=C(O)[C@@H]1CCCN1Cc1cc([N+](=O)[O-])c2cccnc2c1O` [HQNO2-L-Pro, (2S)-1-((8-hydroxy-5-nitroquinolin-7-yl)methyl)pyrrolidin-1-ium-2-carboxylate]?
A: E1/2 vs. NHE ([4]; scan rate 0.005 V/s): +0.207 V; E1/2 vs. NHE ([4]; scan rate 0.010 V/s): +0.216 V; E1/2 vs. NHE ([4]; scan rate 0.015 V/s): +0.218 V; E1/2 vs. NHE ([4]; scan rate 0.020 V/s): +0.217 V; E1/2 vs. NHE ([4]; scan rate 0.025 V/s): +0.214 V; formal potential E'1/2 of the Fe(III)/Fe(II) redox pair of the iron complexes ([4]; pH 7.4, 1:3 metal-to-ligand ratio, ciron = 0.5 mM): +215 ± 5 mV vs. NHE; Kd ([5]; read-out: quenching constant logKQ' (converted)): 16.6 µM

Q: What does the source list for `CC1=C(C)[C](C)([Rh]([Cl])[O]c2c(C[NH+]3CCC[C@H]3C(=O)O)cc([N+](=O)[O-])c3cccnc23)C(C)=C1C.[Cl-]` [RhCp*-HQNO2-L-Pro, [RhCp*(HQNO2-L-Pro)Cl]Cl]?
A: changes of the charge-transfer bands (400–500 nm) on incubation in serum [1]: minor changes; pKa (1) [2]: 9.33 ± 0.03; pKa (2) [2]: 10.34 ± 0.03; logK' (H2O/Cl−) ([2]; pH 7.4): 2.07 ± 0.03; spectral changes on incubation in RPMI medium [3]: more significant; quenching constant logKQ' [5]: 5.1
